Drawing on US11485735B2, “Selective CDK4/6 inhibitor and preparation thereof” (Wuxi Shuangliang Biotechnology Co., Ltd., priority 2019, dated 2022), this text covers IC50 for 9 molecules.

For test [1], the target named is T1, CDK4/CyclinD3 (Homo sapiens, UniProt P11802).
T1 construct: purchased Wuxi Biortus Biosciences Co. Ltd
In words: In-vitro kinase inhibitory activity, CDK4/CyclinD3 (Caliper EZ Reader II mobility shift). The format is biochemical. As to conditions: CDK4/CyclinD3 20 nM, ATP 2 mM, Peptide 1 μM, 27° C., 180 min; read-out: IC50 (half maximal inhibitory concentration, nM) CDK4. The procedure: The final volume for assay was 16 μL, and the reaction temperature was 27° C. CDK4/CyclinD3 was produced by Wuxi Biortus Biosciences Co. Ltd. The concentration of the kinase was determined by the results of the optimization experiment. The kinase was diluted with an assay buffer (50 mM Tris HCl pH 8.0, 0.01% Tween 20, 50 μg/mL BSA, and 5 mM MgCl2) to obtain a corresponding kinase solution (2.4× concentration). The compound was dissolved in dimethyl sulfoxide (DMSO) to reach a concentration of 10 mM. […] 2 μL of the test compound solution was mixed with 5 μL of the kinase solution, and the mixture was incubated for 10 min. 5 μL of the mixed solution of the polypeptide substrate and ATP was then added. The mixture was incubated at 27° C. for 180 min, and then the reaction was terminated by adding 4 μL of EDTA with a concentration of 120 mM to each sample. […] Each assay was conducted in at least two replicates.
(§1) The final concentrations of the reagents in the assay were as follows. […] The reaction mixture was analyzed on a Caliper EZ Reader II by electrophoretic separation of the fluorescent substrate and the phosphorylated product. Data were calculated by using GraphPad Prism version 6.0 and IC50 values were obtained by adjusting the non-linear regression models of the dose response curves.

The target of test [2] is T2, CDK6/CyclinD3 (Homo sapiens, UniProt Q00534).
T2 construct: purchased Wuxi Biortus Biosciences Co. Ltd
In words: In-vitro kinase inhibitory activity, CDK6/CyclinD3 (Caliper EZ Reader II mobility shift). As to conditions: CDK6/CyclinD3 20 nM, ATP 2 mM, Peptide 1 μM, 27° C., 120 min; read-out: IC50 (half maximal inhibitory concentration, nM) CDK6. It counts as biochemical. The procedure: The final volume for assay was 16 μL, and the reaction temperature was 27° C. […] The compound was dissolved in dimethyl sulfoxide (DMSO) to reach a concentration of 10 mM. […] 2 μL of the test compound solution was mixed with 5 μL of the kinase solution, and the mixture was incubated for 10 min. 5 μL of the mixed solution of the polypeptide substrate and ATP was then added. The mixture was incubated at 27° C. for 120 min, and then the reaction was terminated by adding 4 μL of EDTA with a concentration of 120 mM to each sample. […] Each assay was conducted in at least two replicates.
as §1

In test [3] the target is CDK9 (Homo sapiens, UniProt P50750). Nature of the test: In-vitro kinase inhibitory activity, CDK9 (selectivity). The format is biochemical. Particulars: read-out: IC50 (half maximal inhibitory concentration, nM) CDK9.
The test system of test [4] is human colon cancer COLO205 cells. Nature of the test: Growth inhibition of tumor cells cultured in vitro, CellTiter-Glo, COLO205. It counts as cell-based. As to conditions: Homo sapiens, COLO 205, 72 h, COLO205, 72 h, CellTiter-Glo. The source says:
Test drugs: Compounds of the present disclosure. Tumor cell strains: human colon cancer COLO205 cells and human breast cancer MCF-7 cells.
The growth inhibitory effects on human tumor cells COLO205 and MCF-7 cultured in vitro were observed by using a CellTiter-Glo Luminescent Cell Viability Assay Kit (Promega, Cat. No. G7572). Human tumor cells COLO205 and MCF-7 were both purchased from the American Type Culture Collection.
CellTiter-Glo Luminescent Cell Viability Assay: The previous cell culture medium was discarded, and the tumor cells were rinsed twice with PBS. An appropriate amount of trypsin (VWR, Cat. No. 0458-25G) was added to digest the tumor cells until most of the cells turned round and were detached from the wall. The trypsin digestion was terminated by adding an RPMI-1640 medium (COLO205; Gibco, Cat. No. A10491-01) containing 10% fetal bovine serum (Hyclone, Cat. No. SV30160.03) and MEM medium (MCF-7; Gibco, Cat. No. 10370-021) containing 10% fetal bovine serum and 0.01 mg/mL insulin, and the cells were gently pipetted with a pipette to completely suspend the tumor cells. After cell counting, a tumor cell suspension was prepared using a complete culture medium and the final concentration was 6.7×10^4 cells/mL. 90 μL of the tumor cell suspension was seeded in each well of a 96-well culture plate (6000 cells/well). The plate was then placed in an incubator with 5% CO2 at 37° C. and incubated for 24 h. A test drug was added by using an Agilent Bravo Automated Liquid Handling Platform, and 10 μL of the sample was added in each well. The assay was conducted in triplicate for each group. A compound of the present disclosure was dissolved in DMSO (BioRoYee, Cat. No. AF0231), and then the resulting solution was diluted to 10 μM/L, 3.33 μM/L, 1.11 μM/L, 0.37 μM/L, 0.123 μM/L, 0.041 μM/L, 0.0137 μM/L, 0.0046 μM/L, and 0.0015 μM/L with the culture medium. The concentration of DMSO was lower than 0.1%, and a culture medium containing 0.1% DMSO was added to the well which was set as a vehicle control group. The 96-well plate was placed in an incubator with 5% CO2 at 37° C. and incubated for 72 h. The 96-well plate to be tested was equilibrated at room temperature for 30 min, and 100 μL of Cell Titer-Glo reagent was added to each well. The contents of each well were mixed in an orbital shaker for 2 min to induce cell lysis, and the plate was incubated at room temperature for 10 min to achieve a constant value of fluorescent intensity. Finally, the chemiluminescence intensity was detected by TECAN M1000. Data were processed with Graphpad Prism 6.0 software. The growth curve of the cells was plotted. The cell growth inhibition rate of a drug was calculated, and the half maximal inhibitory concentration (IC50) of the drug was determined.
(In general: Cellular ATP, detected with luciferase, serves as a proxy for viable cell number.)

The structures appear in SMILES notation. Where a name gives a salt, the structure may show the parent alone.

Chain of CDK9 (P50750 whole entry, species assumed): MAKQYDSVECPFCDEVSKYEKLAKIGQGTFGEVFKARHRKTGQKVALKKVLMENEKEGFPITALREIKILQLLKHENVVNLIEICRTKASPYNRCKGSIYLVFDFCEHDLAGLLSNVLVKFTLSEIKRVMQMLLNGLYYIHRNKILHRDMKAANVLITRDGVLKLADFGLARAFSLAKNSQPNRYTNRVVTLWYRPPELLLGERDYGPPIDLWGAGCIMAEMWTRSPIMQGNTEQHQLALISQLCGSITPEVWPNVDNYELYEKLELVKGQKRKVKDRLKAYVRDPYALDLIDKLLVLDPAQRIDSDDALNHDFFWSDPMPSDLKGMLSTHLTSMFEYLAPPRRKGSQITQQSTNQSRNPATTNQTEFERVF
Chain of CDK9 (O60563 whole entry partner, species assumed): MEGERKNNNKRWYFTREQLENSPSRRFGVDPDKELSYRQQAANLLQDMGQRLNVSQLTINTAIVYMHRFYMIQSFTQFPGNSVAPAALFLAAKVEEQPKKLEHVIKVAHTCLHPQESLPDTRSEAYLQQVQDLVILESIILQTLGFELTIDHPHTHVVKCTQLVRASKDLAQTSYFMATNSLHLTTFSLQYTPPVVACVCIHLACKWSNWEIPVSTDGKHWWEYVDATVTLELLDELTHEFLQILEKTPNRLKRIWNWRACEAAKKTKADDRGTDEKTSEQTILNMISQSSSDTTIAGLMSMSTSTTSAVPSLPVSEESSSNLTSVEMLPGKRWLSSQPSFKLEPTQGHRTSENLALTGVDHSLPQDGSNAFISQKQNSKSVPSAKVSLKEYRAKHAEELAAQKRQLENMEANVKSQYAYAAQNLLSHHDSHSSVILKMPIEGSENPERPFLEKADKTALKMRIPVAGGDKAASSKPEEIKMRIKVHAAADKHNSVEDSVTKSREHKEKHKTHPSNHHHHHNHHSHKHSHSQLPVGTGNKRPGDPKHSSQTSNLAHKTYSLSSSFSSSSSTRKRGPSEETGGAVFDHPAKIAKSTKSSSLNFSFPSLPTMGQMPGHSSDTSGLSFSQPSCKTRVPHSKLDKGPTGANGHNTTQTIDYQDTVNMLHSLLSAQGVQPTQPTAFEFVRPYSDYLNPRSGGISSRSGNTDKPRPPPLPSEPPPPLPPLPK
T1 sequence (P11802 whole entry, species assumed): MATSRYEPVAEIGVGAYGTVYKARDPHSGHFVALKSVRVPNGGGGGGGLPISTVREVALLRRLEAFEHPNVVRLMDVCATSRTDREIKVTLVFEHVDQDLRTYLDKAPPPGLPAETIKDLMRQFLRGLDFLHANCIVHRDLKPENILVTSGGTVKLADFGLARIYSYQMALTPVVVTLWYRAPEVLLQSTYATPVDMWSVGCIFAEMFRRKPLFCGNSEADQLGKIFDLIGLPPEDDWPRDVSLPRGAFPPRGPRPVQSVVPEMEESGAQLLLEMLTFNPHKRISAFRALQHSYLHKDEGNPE
T1 sequence (P30281 whole entry partner, species assumed): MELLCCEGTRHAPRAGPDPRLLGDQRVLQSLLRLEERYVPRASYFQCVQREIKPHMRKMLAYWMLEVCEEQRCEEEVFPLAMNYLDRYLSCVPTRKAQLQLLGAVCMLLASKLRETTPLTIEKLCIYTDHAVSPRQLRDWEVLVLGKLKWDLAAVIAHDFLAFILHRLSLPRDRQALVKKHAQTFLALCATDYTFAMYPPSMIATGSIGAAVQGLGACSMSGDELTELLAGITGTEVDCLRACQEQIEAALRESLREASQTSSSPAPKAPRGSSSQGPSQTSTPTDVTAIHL
T2 sequence (Q00534 whole entry, species assumed): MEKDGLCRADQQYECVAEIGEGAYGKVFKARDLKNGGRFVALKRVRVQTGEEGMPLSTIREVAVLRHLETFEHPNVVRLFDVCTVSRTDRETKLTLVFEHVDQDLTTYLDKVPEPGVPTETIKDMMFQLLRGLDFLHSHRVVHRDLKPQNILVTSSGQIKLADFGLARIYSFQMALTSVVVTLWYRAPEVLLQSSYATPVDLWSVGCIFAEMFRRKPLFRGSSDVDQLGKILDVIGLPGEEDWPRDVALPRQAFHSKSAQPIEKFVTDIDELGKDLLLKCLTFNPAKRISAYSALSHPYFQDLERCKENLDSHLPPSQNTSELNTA
T2 sequence (P30281 whole entry partner, species assumed): as the sequence (P30281 whole entry partner, species assumed) above

Take `CC(=O)c1c(C)c2cnc(Nc3ccc(N4CCN(CCC5CCN(c6ccc7c(c6)CN(C6CCC(=O)NC6=O)C7=O)CC5)CC4)cn3)nc2n(C2CCCC2)c1=O` (stereo not drawn) [Compound 13, 3-(5-(4-(2-(4-(6-((6-acetyl-8-cyclopentyl-5-methyl-7-oxo-7,8-dihydropyrido[2,3-d]pyrimidin-2-yl)amino)pyridin-3-yl)piperazin-1-yl)ethyl)piperidin-1-yl)-1-oxoisoindolin-2-yl)piperidine-2,6-dione]: the IC50 in test [1] was 71.1 nM; in test [2], 26.6 nM; in test [3] it was more than 10000 nM; in test [4] it was 59.4 nM.
On to `COc1cc(N2CCN(CCN3CCN(c4ccc(Nc5ncc6c(C)c(C(C)=O)c(=O)n(C7CCCC7)c6n5)nc4)CC3)CC2)cc2c1C(=O)N(C1CCC(=O)NC1=O)C2` (stereo not drawn) [Compound 17, 3-(5-(4-(2-(4-(6-((6-acetyl-8-cyclopentyl-5-methyl-7-oxo-7,8-dihydropyrido[2,3-d]pyrimidin-2-yl)amino)pyridin-3-yl)piperazin-1-yl)ethyl)piperazin-1-yl)-7-methoxy-1-oxoisoindolin-2-yl)piperidine-2,6-dione dihydrochloride], for which the IC50 was 67.1 nM in test [1], 29.6 nM in test [2] and more than 10000 nM in test [3].
For `CC(=O)c1c(C)c2cnc(Nc3ccc(N4CCN(CCN5CCN(c6ccc7c(c6Cl)CN(C6CCC(=O)NC6=O)C7=O)CC5)CC4)cn3)nc2n(C2CCCC2)c1=O` (stereo not drawn) [Compound 21, 3-(5-(4-(2-(4-(6-((6-acetyl-8-cyclopentyl-5-methyl-7-oxo-7,8-dihydropyrido[2,3-d]pyrimidin-2-yl)amino)pyridin-3-yl)piperazin-1-yl)ethyl)piperazin-1-yl)-4-chloro-1-oxoisoindolin-2-yl)piperidine-2,6-dione dihydrochloride], the IC50 is 53.2 nM in test [1], 37.1 nM in test [2] and 3950 nM in test [3].
Taken in the same sequence, the figures for `CN(C)C(=O)c1cc2cnc(Nc3ccc(N4CCN(CCN5CCC(CN6CCN(c7ccc8c(c7)CN(C7CCC(=O)NC7=O)C8=O)CC6)CC5)CC4)cn3)nc2n1C1CCCC1` (stereo not drawn) [Compound 26, 7-cyclopentyl-2-((5-(4-(2-(4-((4-(2-(2,6-dioxopiperidin-3-yl)-1-oxoisoindolin-5-yl)piperazin-1-yl)methyl)piperidin-1-yl)ethyl)piperazin-1-yl)pyridin-2-yl)amino)-N,N-dimethyl-7H-pyrrolo[2,3-d]pyrimidin-6-amide trihydrochloride] were 38.4 nM, 55.2 nM and 4000 nM.
In the case of `CC(=O)c1c(C)c2cnc(Nc3ccc(N4CCN(CCN5CCC(CN6CCN(c7ccc8c(c7Cl)CN(C7CCC(=O)NC7=O)C8=O)CC6)CC5)CC4)cn3)nc2n(C2CCCC2)c1=O` (stereo not drawn) [Compound 36, 3-(5-(4-((1-(2-(4-(6-((6-acetyl-8-cyclopentyl-5-methyl-7-oxo-7,8-dihydropyrido[2,3-d]pyrimidin-2-yl)amino)pyridin-3-yl)piperazin-1-yl)ethyl)piperidin-4-yl)methyl)piperazin-1-yl)-4-chloro-1-oxoisoindolin-2-yl)piperidine-2,6-dione trihydrochloride], the IC50 was found to be 12.7 nM in test [1], 4.44 nM in test [2], 1480 nM in test [3] and 95.9 nM in test [4].
Taken in the same sequence, the figures for `CC(=O)c1c(C)c2cnc(Nc3ccc(N4CCN(CCN5CCC(CC6CCN(c7ccc8c(c7)CN([C@H]7CCC(=O)NC7=O)C8=O)CC6)CC5)CC4)cn3)nc2n(C2CCCC2)c1=O` [Compound 38, (S)-3-(5-(4-((1-(2-(4-(6-((6-acetyl-8-cyclopentyl-5-methyl-7-oxo-7,8-dihydropyrido[2,3-d]pyrimidin-2-yl)amino)pyridin-3-yl)piperazin-1-yl)ethyl)piperidin-4-yl)methyl)piperidin-1-yl)-1-oxoisoindolin-2-yl)piperidine-2,6-dione dihydrochloride] were 8.88 nM, 6.73 nM, 1400 nM and 76.2 nM.
Taken in the same sequence, the figures for `CC(=O)c1c(C)c2cnc(Nc3ccc(N4CCN(CCN5CCC(CC6CCN(c7ccc8c(c7Cl)CN(C7CCC(=O)NC7=O)C8=O)CC6)CC5)CC4)cn3)nc2n(C2CCCC2)c1=O` (stereo not drawn) [Compound 39, 3-(5-(4-((1-(2-(4-(6-((6-acetyl-8-cyclopentyl-5-methyl-7-oxo-7,8-dihydropyrido[2,3-d]pyrimidin-2-yl)amino)pyridin-3-yl)piperazin-1-yl)ethyl)piperidin-4-yl)methyl)piperidin-1-yl)-4-chloro-1-oxoisoindolin-2-yl)piperidine-2,6-dione dihydrochloride] were 56.1 nM, 11.3 nM, 5760 nM and 440 nM.
`CC(=O)c1c(C)c2cnc(Nc3ccc(N4CCN(CCN5CCC(CC6CCN(c7ccc8c(c7Cl)CN([C@H]7CCC(=O)NC7=O)C8=O)CC6)CC5)CC4)cn3)nc2n(C2CCCC2)c1=O` [Compound 40, (S)-3-(5-(4-((1-(2-(4-(6-((6-acetyl-8-cyclopentyl-5-methyl-7-oxo-7,8-dihydropyrido[2,3-d]pyrimidin-2-yl)amino)pyridin-3-yl)piperazin-1-yl)ethyl)piperidin-4-yl)methyl)piperidin-1-yl)-4-chloro-1-oxoisoindolin-2-yl)piperidine-2,6-dione dihydrochloride]: the IC50 in test [1] came to 55 nM; in test [2], 23.3 nM; in test [3], 6810 nM; in test [4], 50.9 nM.
Turning to `CC(=O)c1c(C)c2cnc(Nc3ccc(N4CCC(CCN5CCC(CC6CCN(c7ccc8c(c7)CN(C7CCC(=O)NC7=O)C8=O)CC6)CC5)CC4)cn3)nc2n(C2CCCC2)c1=O` (stereo not drawn) [Compound 42, 3-(5-(4-((1-(2-(1-(6-((6-acetyl-8-cyclopentyl-5-methyl-7-oxo-7,8-dihydropyrido[2,3-d]pyrimidin-2-yl)amino)pyridin-3-yl)piperidin-4-yl)ethyl)piperidin-4-yl)methyl)piperidin-1-yl)-1-oxoisoindolin-2-yl)piperidine-2,6-dione hydrochloride], the IC50 in test [1] is 33.3 nM; in test [2] it was 19.2 nM; in test [3], more than 10000 nM; in test [4], 194 nM.
